From patent publication US20260193659A1, “METHODS FOR TREATING MONGE'S DISEASE” (The Regents of the University of California, priority 2022, published 2026)
Entries after “also recorded” stand apart in the source; their conditions may differ.

Legend:
zebrafish embryos = experiment: Hemoglobin staining (o-dianisidine) of zebrafish embryos injected with csnk2b morpholino; assay type: in vivo, Zebrafish (Danio rerio); settings: 2 dpf
Description: Zebrafish (Danio rerio) were raised in a circulating aquarium system on a 14-hour light/10-hour dark cycle at 28.5° C., following standard husbandry procedures.
The morpholino antisense oligo (MO) 5′-[…]-3′ (SEQ ID NO: 23) was synthesized to block the translation initiation of csnk2b, and the 5-mismatch oligo 5′-[…]-3′ (SEQ ID NO: 24) was synthesized as a specificity control (Gene Tools). For synthesizing CSNK2B rescue mRNA that is resistant to the translation blocking MO, the full-length csnk2b coding sequence with 4 base pairs of silent mutations in the MO recognition region was cloned into the pCS2-vector (Azenta Life Sciences), in which the first 24 base pairs of the CSNK2B coding sequence became 5′-[…]-3′ (SEQ ID NO: 25). The csnk2b capped mRNA was synthesized using the mMESSAGE mMACHINE Kit (Ambion, AM1340). Microinjection was performed on WT AB embryos at the 1- to 2-cell stages.
Embryos at 2 dpf were dechorionated and anesthetized with 0.016% tricaine (Fluka, A5040), followed by a 15-minute incubation in 0.6 mg/mL o-dianisidine solution (SigmaAldrich, D9143). This solution was prepared in 0.65% H2 O2 (EMD, HX0647-3), 40% ethanol (KOPTEC, 89125), and 10 mM sodium acetate (Fisher Chemical, S210-500) at room temperature. Stained embryos were washed twice with 1×PBS (Gibco, Thermo Fisher Scientific, 14200166) and then fixed in 4% paraformaldehyde (PFA) (SigmaAldrich, P6148). Hemoglobin signal was observed under a light microscope and quantified according to the area and intensity in the heart and common cardinal vein; embryos were categorized into normal, medium, and low hemoglobin levels.

Monge's disease = settings: patients; cited from earlier work
LINC02228 (HIKER) = experiment: KD efficiency of LINC02228 (HIKER) by ASO, qPCR; assay type: cell-based, human; settings: CMS cells
Description: Locked nucleic acids (LNAs) targeting HIKER/LINC02228 and LINC00431 were designed and synthesized by Exiqon. The most efficient ASO for each LNA was initially tested in the pilot experiment with and without transfection reagent (Lipofectamine 3000. Life Technologies. L3000-008) in a dose-response experiment at a concentration of 10 nM, 25 nM, 50 nM, and 100 nM. The uptake and the effect of ASO were monitored by qPCR at various stages (iPSC stage and CD34+ cells isolated from EBs). For both lncRNAs, the optimal delivery for all the stages was at the 50 nM concentration without the transfection reagent.
(§1) CD34^+ cells were isolated from iPSC-derived EBs as follows. After 7 days of differentiation, EBs were harvested by spinning at 400 g for 10 minutes. After centrifugation, EBs were dissociated into single cells using Accutase treatment for 10 minutes and then filtered through a 60 μm cell strainer (Falcon). CD34^+ cells were isolated from this cell suspension using EasySep Human CD34 Positive Selection Kit 11 ([…] Technologies, 17856) per the manufacturer's instructions. These iPSC-derived CD34+ cells were used in subsequent qPCR and colony-forming assays.

CMS cells = experiment: BFU-E colony forming assay with CK2 inhibitors, iPSC-derived CD34+ cells under hypoxia; assay type: cell-based, human; settings: 5% O2, 14 days, TBB 25 μM, 50 µM, 100 μM, CX4945 2.5, 5, 10 μM
Description: as §1
CD34^+ cells used in this assay were derived from iPSC-generated EBs as described herein. CD34^+ cells were plated at a density of 10^5 cells per 35 mm dish combined with MethoCult H4034 Optimum Media ([…] Technologies, 04044) and 2% FBS. Dishes were incubated at 37° C. in an incubator with 5% CO2 and 5% O2 for 14 days, at which time colonies were scored for BFU-E and CFU-granulocyte, erythrocyte, monocyte, megakaryocyte (CFU-GEMM).
TBB (catalog ab120988) and CX4945 (catalog S2248) were purchased from Abcam and Selleckcam, respectively. Dose-response experiments were performed with the inhibitors using the following concentrations in the colony forming assays using iPSC-derived CD34^+ cells as described herein: TBB (25 μM, 50 µM, and 100 μM) and CX4945 (2.5 μM, 5 μM, and 10 μM).

MO: morpholino antisense oligo 5′-CGACACTTCCTCTGAGCTACTCATG-3′ (SEQ ID NO: 23) blocking translation initiation of csnk2b (all phosphorodiamidate morpholino (PMO))
hemoglobin levels (zebrafish embryos; 1 ng dose): minimal impact on hemoglobin levels | hemoglobin versus controls (zebrafish embryos; 3 ng and 5 ng MO dosage): remarkable decrease in hemoglobin | morphants showing moderate or low iron staining (zebrafish embryos; 3 ng and 5 ng MO): more than 97% | hemoglobin, dose dependence (zebrafish embryos; 1, 3 or 5 ng): dose-dependent loss of hemoglobin

CC(=O)Nc1nnc(S(N)(=O)=O)s1 [Acetazolamide]
clinical response in Monge's disease (Monge's disease): mild response and relief of symptoms

ASO-1: LNA gapmer ASO targeting HIKER/LINC02228, SEQ ID NO 1: G*G*T*T*G*C*T*T*T*C*A*G*G*C*C*C*C*T*T*A (antisense GGTTGCTTTCAGGCCCCTTA; all phosphorothioate, sugars by position and methylation of C not given here; LNA gapmer)
KD efficiency, ranking among the 3 ASOs (LINC02228 (HIKER)): highest KD efficiency

Brc1c(Br)c(Br)c2n[nH]nc2c1Br [TBB]
BFU-E colonies (erythroid colony numbers) (CMS cells): significant changes were observed in the colony numbers in a dose-dependent manner; also recorded: decreases BFU-E colonies in CMS cells in a dose-dependent manner
